From patent publication US12226383B1, “Compositions containing short-chain fatty acid, methods of use, and methods of making thereof” (Velocity Life Sciences, LLC, priority 2024, dated 2025)

What was measured:
[1] = Exposure of powder sample at room temperature to air (hygroscopicity, storage stability); type: physicochemical; conditions: for State of powder after exposure to air: exposed to air
Excerpt: The L-arginine butyrate prepared using ethanol as the sole solvent was a white to off-white powder.
The L-lysine butyrate prepared using ethanol as the sole solvent was a light, pale yellow to yellow powder.

[2] = Study to assess nootropic and related properties after oral administration; type: in vivo, human
Procedure: In another experiment, L-lysine butyrate in a dose range of 500 mg to 5,000 mg was administered as an aqueous solution to six individuals aged between 22 and 55 years, comprising two women and four men. […] The observed effects were dose-dependent, with larger doses of L-lysine butyrate providing greater effects and longer duration, lasting up to four hours.
In another experiment, L-lysine butyrate in a dose of 2 g, and on a separate occasion 5 g, was administered in encapsulated form, to 2 individuals. A further individual was administered L-lysine butyrate in a dose of 2 g in encapsuled form.

[3] = seven (7) days, room temperature

Row | Substance | Hygroscopicity [1] | State of powder after exposure to air ([1]; 24 hours, room temperature) | State of powder after exposure to air [1, 3] | Time to reported effects after administration ([2]; 500 mg to 5,000 mg as aqueous solution, six individuals) | Effects reported by participants ([2]; 500 mg to 5,000 mg as aqueous solution, six individuals, dose-dependent) | Duration of effects ([2]; 500 mg to 5,000 mg as aqueous solution, larger doses longer duration) | Analgesic effect ([2]; oral administration, 2 g encapsulated, two of the individuals) | Mental effects ([2]; single oral administration of 2 g, encapsulated form) | Mental effects (undesirable) ([2]; single oral administration of 5 g, encapsulated form) | Calming effect in a baby ([2]; small dosage of 25 mg or 50 mg) | Storage stability of the solid ([1]; room temperature) | State of powder after exposure to air ([1]; thirty (30) days, room temperature)
1 | L-arginine butyrate [reference compound] | quite hygroscopic | formed hard, rock-like clumps | significantly hydrated into, large solid masses |  |  |  |  |  |  |  |  | 
2 | L-lysine butyrate | not hygroscopic | remained a fine, free-flowing yellow powder | remained a fine, free-flowing powder with no color change | thirty | more relaxed, less tired, more sociable, and able to concentrate on tasks more effectively | up to four | eliminating minor-to-moderate pain and discomfort | pleasant mental effects | undesirable mental effects | effective to calm a baby | stable to storage at room temperature | remained a fine, free-flowing powder
